Experimental data from paper PMC2853048 (Journal of medicinal chemistry, 2009).

Molecular target: T1, human Gli1 (Homo sapiens, UniProt P08151)
T1 sequence (P08151 1-1106): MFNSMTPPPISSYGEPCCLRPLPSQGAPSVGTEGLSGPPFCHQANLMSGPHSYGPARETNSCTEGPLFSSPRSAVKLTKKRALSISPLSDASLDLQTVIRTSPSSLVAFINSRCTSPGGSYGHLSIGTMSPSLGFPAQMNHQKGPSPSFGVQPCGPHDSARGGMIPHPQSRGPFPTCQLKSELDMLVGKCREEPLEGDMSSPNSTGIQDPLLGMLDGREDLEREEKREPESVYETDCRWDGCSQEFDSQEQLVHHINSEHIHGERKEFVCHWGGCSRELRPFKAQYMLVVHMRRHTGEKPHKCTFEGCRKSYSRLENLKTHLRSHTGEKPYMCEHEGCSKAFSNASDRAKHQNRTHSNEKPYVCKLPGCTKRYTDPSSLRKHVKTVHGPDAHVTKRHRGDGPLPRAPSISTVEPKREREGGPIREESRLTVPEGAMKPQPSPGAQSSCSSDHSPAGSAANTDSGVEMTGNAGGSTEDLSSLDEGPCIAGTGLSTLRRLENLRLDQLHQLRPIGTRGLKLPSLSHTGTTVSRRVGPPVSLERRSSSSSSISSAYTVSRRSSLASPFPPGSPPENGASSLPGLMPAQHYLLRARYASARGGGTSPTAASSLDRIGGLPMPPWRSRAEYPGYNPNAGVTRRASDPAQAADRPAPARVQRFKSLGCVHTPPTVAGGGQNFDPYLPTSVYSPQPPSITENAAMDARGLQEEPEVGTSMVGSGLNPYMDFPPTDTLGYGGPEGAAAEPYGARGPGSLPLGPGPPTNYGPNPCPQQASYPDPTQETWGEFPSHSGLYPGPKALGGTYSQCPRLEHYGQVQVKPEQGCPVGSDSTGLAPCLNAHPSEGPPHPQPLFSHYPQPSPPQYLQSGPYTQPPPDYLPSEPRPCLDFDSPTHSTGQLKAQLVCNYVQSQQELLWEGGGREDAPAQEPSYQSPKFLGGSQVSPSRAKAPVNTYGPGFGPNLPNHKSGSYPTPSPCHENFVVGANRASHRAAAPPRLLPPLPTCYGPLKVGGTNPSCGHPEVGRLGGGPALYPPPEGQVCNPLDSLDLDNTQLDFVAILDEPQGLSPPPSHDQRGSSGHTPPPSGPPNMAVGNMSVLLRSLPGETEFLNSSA
Experiment: Gli-mediated transcription reporter assay in C3H10T1/2 cells with exogenous Gli1
Assay type: cell-based
Settings: Gli1-transfected C3H10T1/2 cells, 24 h, 20 µM or 40 µM

Molecule	inhibition of Gli1-mediated transcription (Gli-reporter activity), in words
CC(C)Cc1ccc(C(C)C(=O)NCCc2ccc(O)cc2)cc1 (stereo not shown) [Compound 34, N-(4-Hydroxyphenethyl)-2-(4-isobutylphenyl)propanamide]	modest inhibition
(S)-2-(3-Benzoylphenyl)-N-(4-methoxyphenethyl)propanamide [Compound 47]	decrease in the activity
O=C(Cc1ccccc1Oc1ccccc1)NCCc1ccc(O)cc1 [Compound 41, N-(4-Hydroxyphenethyl)-2-(2-phenoxyphenyl)acetamide]	decreased activity
C[C@H](C(=O)NCCc1ccc(O)cc1)c1cccc(C(O)c2ccccc2)c1 (stereo partly drawn) [Compound 39, (2S)-2-(3-(Hydroxy(phenyl)methyl)phenyl)-N-(4-hydroxyphenethyl)propanamide]	less potent than 36
COc1ccc(C(=O)NC[C@@H](C)c2cccc(C(=O)c3ccccc3)c2)cc1 [Compound 57, (S)-N-(2-(3-Benzoylphenyl)propyl)-4-methoxybenzamide]	retained the activity
(S)-2-(3-Benzoylphenyl)-N-(3-hydroxy-4-methoxyphenethyl)propanamide [Compound 52]	reduced the activity by about half
(S)-2-(3-Benzoylphenyl)-N-(2-hydroxyphenethyl)propanamide [Compound 44]	slightly decreased at 20 µM
C[C@H](C(=O)NCc1ccc(O)cc1)c1cccc(C(=O)c2ccccc2)c1 [Compound 53, (S)-2-(3-Benzoylphenyl)-N-((4-hydroxyphenyl)methyl)propanamide]	decreased activity
O=C(Cc1ccc(Oc2ccccc2)cc1)NCCc1ccc(O)cc1 [Compound 43, N-(4-Hydroxyphenethyl)-2-(4-phenoxyphenyl)acetamide]	equipotent
C[C@H](COC(=O)Nc1ccc(O)cc1)c1cccc(C(=O)c2ccccc2)c1 [Compound 61, (S)-2-(3-Benzoylphenyl)propyl 4-hydroxyphenylcarbamate]	substantially decreased the activity
O=C(Cc1cccc(Oc2ccccc2)c1)NCCc1ccc(O)cc1 [Compound 42, N-(4-Hydroxyphenethyl)-2-(3-phenoxyphenyl)acetamide]	equipotent
(S)-2-(3-Benzoylphenyl)-N-phenethylpropanamide [Compound 48]	significantly lower activity than 36
C[C@H](C(=O)NCCc1ccc(O)cc1)c1cccc(Cc2ccccc2)c1 [Compound 40, (S)-2-(3-Benzylphenyl)-N-(4-hydroxyphenethyl)propanamide]	less potent than 36
C[C@H](COC(=O)NCCc1ccc(O)cc1)c1cccc(C(=O)c2ccccc2)c1 [Compound 62, (S)-2-(3-Benzoylphenyl)propyl 4-hydroxyphenethylcarbamate]	substantially decreased the activity
(S)-2-(3-Benzoylphenyl)-N-(4-chlorophenethyl)propanamide [Compound 49]	slightly lower activity than 36
C[C@H](CNC(=O)c1ccc(O)cc1)c1cccc(C(=O)c2ccccc2)c1 [Compound 55, (S)-N-(2-(3-Benzoylphenyl)propyl)-4-hydroxybenzamide]	better activity
